Measurements as given in patent US10100057B2, “Imidazopyrimidine and imidazotriazine derivative, and pharmaceutical composition comprising the same” (SK BIOPHARMACEUTICALS CO., LTD., priority 2016, dated 2018).

biological target: human mGluR5 receptor (Homo sapiens (Human), UniProt P41594); test: Calcium influx assay based on fluorescence (mGluR5 positive allosteric modulator activity); details: human mGluR5 receptor-overexpressed HEK293 cell line; L-glutamate EC20; Fluo-4, FLIPR; read-out: Human mGluR5 PAM EC50
Sequence (P41594 21-1212): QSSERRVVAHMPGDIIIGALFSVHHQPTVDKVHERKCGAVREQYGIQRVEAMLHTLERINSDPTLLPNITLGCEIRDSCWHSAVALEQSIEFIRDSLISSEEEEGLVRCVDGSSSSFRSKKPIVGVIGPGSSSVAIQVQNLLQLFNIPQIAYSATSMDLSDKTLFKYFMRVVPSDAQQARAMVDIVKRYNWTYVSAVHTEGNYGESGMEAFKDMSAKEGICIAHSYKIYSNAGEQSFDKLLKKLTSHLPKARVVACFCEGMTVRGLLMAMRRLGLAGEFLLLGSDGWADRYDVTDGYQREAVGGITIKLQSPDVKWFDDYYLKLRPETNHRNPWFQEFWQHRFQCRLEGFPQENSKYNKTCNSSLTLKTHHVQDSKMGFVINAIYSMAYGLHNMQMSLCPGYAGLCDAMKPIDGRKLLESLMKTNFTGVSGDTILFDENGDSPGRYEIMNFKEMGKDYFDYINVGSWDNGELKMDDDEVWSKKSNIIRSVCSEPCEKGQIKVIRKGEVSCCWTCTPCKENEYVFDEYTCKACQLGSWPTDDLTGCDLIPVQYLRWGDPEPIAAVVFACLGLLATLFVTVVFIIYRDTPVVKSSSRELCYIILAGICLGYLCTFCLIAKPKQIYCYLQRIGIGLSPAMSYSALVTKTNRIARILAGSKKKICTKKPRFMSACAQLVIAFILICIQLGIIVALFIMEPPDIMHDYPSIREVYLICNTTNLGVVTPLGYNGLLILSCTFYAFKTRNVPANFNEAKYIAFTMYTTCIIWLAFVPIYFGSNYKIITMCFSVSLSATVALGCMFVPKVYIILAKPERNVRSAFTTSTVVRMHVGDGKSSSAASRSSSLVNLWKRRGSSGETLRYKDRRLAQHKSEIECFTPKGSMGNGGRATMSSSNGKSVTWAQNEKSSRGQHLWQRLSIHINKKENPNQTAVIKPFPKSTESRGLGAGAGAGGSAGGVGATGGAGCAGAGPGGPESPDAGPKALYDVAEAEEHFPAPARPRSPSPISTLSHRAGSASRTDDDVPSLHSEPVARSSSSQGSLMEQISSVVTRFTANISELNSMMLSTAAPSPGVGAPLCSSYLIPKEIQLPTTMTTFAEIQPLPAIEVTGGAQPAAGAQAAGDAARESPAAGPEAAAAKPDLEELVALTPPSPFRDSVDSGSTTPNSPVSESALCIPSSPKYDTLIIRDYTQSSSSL
Procedure: Efficacy as a positive allosteric modulator (PAM) of mGluR5 of the compounds of the Examples was tested as follows:
Calcium Influx Assay Based on Fluorescence
Ca^2+ (calcium) influx assay is an experiment for measuring the activity of a positive allosteric modulator of mGluR5 receptor in which human mGluR5 receptor-overexpressed HEK293 cell line is used. The day before the experiment, cells were prepared in a cell culture medium (DMEM, 5% FBS) with the density of 80,000/well, and 100 μl of cells were dispensed into each well of a poly-D-lysine-coated 96-well plate. Cells were incubated in a 5% CO2, 37° C. incubator. The next day, the cell culture medium was removed from the plate, and 100 μl of 1× Fluo-4 calcium indicator diluted with a buffer (1× Hank's balanced salt solution, 20 mM HEPES, 2.5 mM probenecid) were added to each well and incubated at 37° C. for 1 hour. The compound stock solutions were prepared in 100% DMSO, and the compounds were serially diluted with a 1/4 dilution to 6 or 7 concentrations (final concentration was 10 μM to 10 nM). The diluted compound solutions were added to the plate with 0.1 to 0.2% of final DMSO concentration. 1 hour after the addition of Fluo-4 calcium indicator, L-glutamate (EC20 concentration) and the test compound solutions were added to the plate, and Ca^2+ reaction was then measured by FLIPR at room temperature. The activity of the compounds was standardized on the basis of the results of maximum value-minimum value of fluorescent reaction, and the activity value was calculated on the basis that no activity on glutamate EC20 is 0% and the reaction to glutamate maximum value is 100%.

| SMILES | EC50 |
| --- | --- |
| Fc1ccc(OCc2cn3cc(-c4ccc(F)cc4Cl)cnc3n2)cc1 [Example 67, 6-(2-chloro-4-fluoro-phenyl)-2-[(4-fluorophenoxy)methyl]imidazo[1,2-a]pyrimidine] | ≤ 100 nM |
| Cc1ccccc1-c1cnc2nc(COc3ccccc3)cn2c1 [Example 5, 6-(2-methylphenyl)-2-phenoxymethylimidazo[1,2-a]pyrimidine] | ≤ 100 nM |
| Fc1ccc(-c2cnc3nc(COc4ccccc4)cn3c2)c(F)c1 [Example 3, 6-(2,4-difluorophenyl)-2-phenoxymethylimidazo[1,2-a]pyrimidine] | ≤ 100 nM |
| OCc1cc(F)ccc1-c1cnc2nc(COc3ccccc3)cn2c1 [Example 25, 6-(4-fluoro-2-hydroxymethylphenyl)-2-phenoxymethylimidazo[1,2-a]pyrimidine] | ≤ 100 nM |
| Cc1cc(F)ccc1-c1cnc2nc(COc3cc(F)ccn3)cn2c1 [Example 116, 6-(4-fluoro-2-methyl-phenyl)-2-[(4-fluoro-2-pyridyl)oxymethyl)imidazo[1,2-a]pyrimidine] | ≤ 100 nM |
| Fc1cccc(OCc2cn3cc(-c4ccc(C(F)(F)F)nc4)cnc3n2)c1 [Example 80, 2-[(3-fluorophenoxy)methyl]-6-[6-(trifluoromethyl)-3-pyridyl)imidazo[1,2-a]pyrimidine] | ≤ 100 nM |
| Cc1cc(F)ccc1-c1cnc2nc(COc3ccccc3)cn2c1 [Example 6, 6-(4-fluoro-2-methylphenyl)-2-phenoxymethylimidazo[1,2-a]pyrimidine] | ≤ 100 nM |
| Cc1cc(-c2cnc3nc(COc4ccc(F)cc4)cn3c2)cnc1F [Example 91, 6-(6-fluoro-5-methyl-3-pyridyl)-2-[(4-fluorophenoxy)methyl]imidazo[1,2-a]pyrimidine] | ≤ 100 nM |

Next, values leading:

| EC50 | SMILES |
| --- | --- |
| ≤ 100 nM | Cc1ccccc1-c1cnc2nc(COc3ccnc(F)c3)cn2c1 [Example 168, 6-(2-methylphenyl)-2-(2-fluoropyridin-4-yloxymethyl)imidazo[1,2-a]pyrimidine] |
| ≤ 100 nM | Cc1cc(F)ccc1-c1cnc2nc(COc3ccnc(F)c3)cn2c1 [Example 162, 6-(4-fluoro-2-methylphenyl)-2-(2-fluoropyridin-4-yloxymethyl)imidazo[1,2-a]pyrimidine] |
| ≤ 100 nM | FCc1cc(F)ccc1-c1cnc2nc(COc3ccccn3)cn2c1 [Example 198, 6-[4-fluoro-2-(fluoromethyl)phenyl]-2-(2-pyridyloxymethyl)imidazo[1,2-a]pyrimidine] |
| ≤ 100 nM | Fc1ccc(-c2cnc3nc(COc4ccccn4)cn3c2)nc1 [Example 132, 6-(5-fluoro-2-pyridyl)-2-(2-pyridyloxymethyl)imidazo[1,2-a]pyrimidine] |
| ≤ 100 nM | Cc1cc(F)ccc1-c1cnc2nc(COc3ccccn3)cn2n1 [Example 188, 2-(4-fluoro-2-methyl-phenyl)-6-(2-pyridyloxymethyl)imidazo[1,2-b][1,2,4]triazine] |
